Assay results published in patent US8859235B2, “Methods in cell cultures, and related inventions, employing certain additives” (priority 2009, dated 2014).

Columns and labels:
[1] = system: E. coli BL21; assay: Growth and GFPuv expression in E. coli BL21 (DE3), shake flask batch culture in complex medium; assay type: cell-based, Escherichia coli; settings: additive 5 mM, 20 h after induction
Procedure: (§1) The measurement of GFP expression by whole cell fluorescence measurements follows the procedure of Scholz et al. (Eur. J. Biochem., 2000,267, 1565-1570). Frozen cell pellets are thawed, resuspended in 1 mL PBS [NaCl (8 g/L), KCl (0.2), of Na2HPO4 (1.44), KH2PO4 (0.24), adjusted to pH 7.4] and subsequently diluted to an optical density of 0.1. GFP fluorescence of whole cells is measured in a Eclipse Fluorometer (Varian) with an excitation wavelength of 400 nm and an emission wavelength of 512 nm. Specific relative fluorescence [RFU/OD600] is calculated by dividing the relative fluorescence emmision units by the optical density of the suspension at 600 nm.
Precultures are prepared in 250 mL baffled shake flasks containing 25 mL sterile LB medium [Tryptone (10.0 g/L), yeast extract (5.0), NaCl (10.0), kanamycin 30 (mg/L); adjusted to pH 7.0 with NaOH]. Cultures are inoculated with 250 μL of a glycerol stock stored at −80° C. of E. coli BL21 [Novagen, Madison, USA; Genotype: E ompT hsdSB (rB^− mB^−) gal dcm (DE3)] harboring the plasmid pET28a-GFPuv which is obtained by inserting the GFPuv gene (isolated from pBAD-GFPuv through PCR) into the EcoRI site of pET28a (Novagen, Madison, USA) which placed the GFPuv gene under the control of the T7/Lac promotor system. Precultures are incubated at 37° C. for 10-12 h.
Experimental cultures are performed in a volume of 25 mL of the above described medium in 250 mL baffled shake flasks. Stabilizers are added to a final concentration of 5 mM as indicated from sterile stock solutions. Cultures are started by inoculating with the preculture to an OD600 at 600 nm of 0.25. Samples are taken for OD600 measurements. Cultures are induced by adding IPTG (Isopropyl-β-D-thiogalactoside) to a final concentration of 0.5 mM when the OD600 reaches 0.5. Samples of 1 mL are taken after induction for OD600 reading and GFP quantification. For GFP quantification 1 mL of the culture is harvested after 2-4 h and after 20 h after induction. Cells are collected by centrifugation at 16 000 g and the cell pellet is stored at −20° C. for further analysis. Analysis of in vivo GFP fluorescence is performed by the method described in Example 1.

[2] = system: E. coli JM109; assay: Growth and GFPuv expression in E. coli JM109, shake flask cultivation in mineral medium; assay type: cell-based, Escherichia coli; settings: Experiment 2, additive 5 mM, 20 h, mean of two
Procedure: Precultures are prepared in 250 mL baffled shake flasks containing 25 mL sterile mineral medium [macronutrients in g/L: Glycerol (25), (NH4)2-citrate (1.0), Na2HPO4 2H2O (9.0), KH2PO4 (1.82), NH4Cl (1.52), MgSO4 (0.12), (NH4)2SO4 (0.6); Ampicillin ([…]); micronutrients in mg/L: Na2-EDTA (8.4), thiamine (4.5), Fe(III) citrate (12.5), Na2MoO4 2×H2O (2.5), H3BO3 (3), CoCl2 6×H2O (2.5), CuSO4 5×H2O (0.45) MnCl24×H2O (15), ZnCl2 (8) adjusted to pH 7.0]. Cultures are inoculated with 250 μL of a glycerol stock stored at −80° C. of E. coli JM109 (Promega Inc, Wallisellen, C H; Genotype: endA1, recA1, gyrA96, thi, hsdR17 (rk^−, mk^+), re/A1, supE44, Δ(lac-proAB), [F″ traD36, proAB, laql^qZΔM15]) harboring the plasmid pBAD-GFPuv (Biorad Inc., Reinach, C H; Genbank U62637.1, containing the GFPuv gene under control of the ara promoter; GFP=Green Fluorescent Protein). Precultures are incubated at 37° C. for 10-12 h.
Experimental cultures are performed in a volume of 25 mL of the above described medium in 250 mL baffled shake flasks. Stabilizers according to the invention are added to a final concentration of 5 mM as indicated from sterile stock solutions. Cultures are started by inoculating with the preculture to an optical density at 600 nm (OD600) of 0.25. Growth of the culture is monitored by reading optical density at 600 nm. Cultures are induced by adding L-arabinose to a final concentration of 0.2% (w/v) when the OD600 reaches 0.5. Samples of 1 mL are taken 6 and 20 h after induction for OD600 reading and GFP quantification. For GFP quantification 1 mL of the culture is harvested after 2-4 h and after 20 h after induction. Cells are collected by centrifugation at 16 000 g and the cell pellet is stored at −20° C. for further analysis.
as §1

## CC1(C)CC(O)CC(C)(C)N1[O] [4-Hydroxy-2,2,6,6-tetramethylpiperidin-1-oxyl]
[1]; Experiment 1, control 3.4
  Growth (Final OD600): 2.4 OD600
[1]; Experiment 1, control 584
  GFP expression (Relative fluorescence unit*OD600^−1): 1909 Relative fluorescence unit*OD600^−1
[1]; Experiment 2, control 3.3
  Growth (Final OD600): 2.61 OD600
[1]; Experiment 2, control 195
  GFP expression (Relative fluorescence unit*OD600^−1): 319 Relative fluorescence unit*OD600^−1
[2]; control 11.0
  Growth (Final OD600): 9.5 OD600
[2]; control 1423
  GFP expression (Relative fluorescence unit*OD600^−1): 7276 Relative fluorescence unit*OD600^−1
